Holding throughout (experiment): NCI-60 cell line screen, 48 h
In test [1] the test system is HCC-2998 colon.
Test [2] relates to LOX IMVI melanoma.
Test [3] concerns BT-549 breast.
The test system of test [4] is OVCAR-5 ovarian.
Test [5] relates to HOP-62 NSCLC.
Test [6] concerns M14 melanoma.
For test [7], the system named is MCF7 breast.
Test [8] concerns HS 578T breast.
In test [9] the test system is NCI-H460 lung.
Test [10] has as its system UO-31 renal.
In test [11] the test system is SN12C renal.
In test [12] the test system is IGROV1 ovarian.
In test [13] the test system is UACC-62 melanoma.
Test [14] has as its system MALME-3M melanoma.
For test [15], the system named is DU-145 prostate.
Test [16] relates to RXF 393 renal.
Test [17] concerns NCI-H522 lung.
The test system of test [18] is U251 CNS.
For test [19], the system named is SK-MEL-5 melanoma.

SMILES strings stand for the structures.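 Exposure lasted 48 hours, with cells grown in 96-well plates and compounds tested at five concentrations. TGI: concentration producing complete growth inhibition.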

Regarding `COc1cc(Br)c(OC)c2c(OC)cc(C)cc12`, the TGI in test [1], in [2], in [3], in [4], in test [5] and in test [6] was > 100 µM throughout. For the same compound, the TGI in [7], in test [8], in [9], in [10], in [11] and in test [12] was > 100 µM each time. Moreover, the TGI in test [13], in test [14], in test [15], in test [16], in test [17] and in test [18] was > 100 µM each time.
On to `c1ccc(Nc2nnc(CSc3nc(-c4ccccc4)c(-c4ccccc4)[nH]3)s2)cc1`, for which the TGI in test [2] worked out at 31.8 µM; in test [4], 43.6 µM; in test [5], 41 µM; in test [6], 28.5 µM; in test [9], 36.3 µM; in [10] it was 34.7 µM. The TGI was 35 µM in test [11]; 42.2 µM in [12]; 34.6 µM in test [14]; 34.9 µM in [17]; 28.1 µM in [18]; 28.5 µM in test [19].
With `COc1cc2c(/C=C3/C(=O)Nc4ccc(Cl)cc43)c(Cl)n(Cc3ccccc3)c2cc1C`, the TGI is > 100 µM in [2]; 22.6 µM in [3]; 7.06 µM in [4]; 18.2 µM in test [6]; > 100 µM in test [7]; > 100 µM in test [8]. The TGI in [9] is > 100 µM; in test [10] it was 6.78 µM; in test [11], 5.24 µM; in test [12], 13.4 µM; in test [13] it was 10.3 µM; in test [14], 4.38 µM. Also, the figures for the TGI in test [15], in test [16] and in [19] were 16.1 µM, 5.18 µM and 13.7 µM, respectively.
Turning to `O=P(O)(OCC(O)O)OCC(O)O`, the TGI in [1], in test [2], in test [4], in test [5], in test [9] and in test [10] was > 100 µM each time. In addition, the TGI in test [12], in test [14], in test [16], in test [17], in test [18] and in test [19] was > 100 µM each time.
Consider `CCOC(C[C@H](O)[C@H]1COC(=S)S1)OCC`, for which the TGI in test [1], in test [2], in test [5], in test [6], in [9] and in test [10] was > 100 µM each time. Also, the TGI in [11], in test [12], in test [13], in test [14], in [16] and in test [17] was > 100 µM throughout. Moreover, the TGI in test [18] and in test [19] was > 100 µM throughout.
For the compound `O=S(=O)([O-])[O-].[Fe+2].c1ccc(/C(=N\Nc2ccccn2)c2ccccn2)cc1`, the TGI in test [1] stood at 16.2 µM; in test [2], 11.8 µM; in [4], 7.07 µM; in test [5] it was 12 µM; in test [6] it was 4.89 µM; in test [9], 8.55 µM. Also, the TGI is 13.1 µM in [10]; 9.69 µM in [11]; 5.46 µM in test [12]; 5.29 µM in test [13]; 10.1 µM in test [14]; 11.7 µM in test [16]. Further, the TGI was determined as 3.55 µM in [17], 4.66 µM in test [18] and 4.43 µM in [19].
Regarding `NS(=O)(=O)c1cc2c(cc1Cl)NC(C(=O)c1cc(=O)c3ccc(O)cc3o1)=NS2(=O)=O`, the TGI in [1], in test [2], in test [4], in [5], in test [6] and in test [9] was > 100 µM throughout. Also, the TGI in test [10], in test [11], in [12], in [13], in test [14] and in [16] was > 100 µM each time. For the same compound, the TGI in test [17], in test [18] and in test [19] was > 100 µM throughout.
`CC(C)=CCCC1(C)C=Cc2c(c(C)cc3c2[nH]c2cc(O)ccc23)O1` (stereo not given): the TGI in test [1], in [2], in test [4], in [5], in test [6] and in [9] was > 25 µM throughout. Further, the TGI in test [10], in test [11], in test [12], in test [13], in test [14] and in test [16] was > 25 µM in each case. The TGI in [17], in test [18] and in test [19] was > 25 µM throughout.
Regarding `COc1cc(/C=C\c2ccccn2)cc(OC)c1OC`, the TGI in test [2], in [4], in test [5], in [6], in test [9] and in test [10] was > 100 µM throughout. For the same compound, the TGI in test [11], in test [12], in test [13], in test [14], in test [16] and in test [17] was > 100 µM throughout. The TGI in test [18] and in [19] was > 100 µM in each case.

For the origin of these results see PubChem BioAssay (NCI).
